Experimental data taken from PubChem BioAssay AID256 (DTP/NCI, 2004).
Where “and” joins values, the source holds several entries; their conditions need not be identical. Equal values may be shown once. Toxic doses and inconclusive results are not listed. The calls were made as follows: active = survival T/C of 150% or more; inactive = T/C below 125% in these data.

Test system: CD2F1 mice, L1210 leukemia ip, survival T/C
Experiment: NCI In Vivo Anticancer Drug Screen. Data for tumor model L1210 Leukemia (intraperitoneal) in CD2F1 (CDF1) mice
Details: higher = longer survival
Outline: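 Tumor-bearing mice (transplanted tumor) were split into treated and vehicle control groups, and the measured endpoint of each treated group was divided by that of its vehicle controls.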

[1] = endpoint: mean survival time, dose: 100.0 mg/kg/injection, schedule: Q04DX003 (ip), vehicle: saline with Tween-80
[2] = endpoint: mean survival time, dose: 200.0 mg/kg/injection, schedule: Q04DX003 (ip), vehicle: saline with Tween-80
[3] = endpoint: mean survival time, dose: 400.0 mg/kg/injection, schedule: Q04DX003 (ip), vehicle: saline with Tween-80
[4] = endpoint: mean survival time, dose: 100.0 mg/kg/injection, schedule: Q01DX001 (ip), vehicle: saline
[5] = endpoint: mean survival time, dose: 200.0 mg/kg/injection, schedule: Q01DX001 (ip), vehicle: saline
[6] = endpoint: mean survival time, dose: 100.0 mg/kg/injection, schedule: Q04DX002 (ip), vehicle: saline with Tween-80
[7] = endpoint: mean survival time, dose: 25.0 mg/kg/injection, schedule: Q01DX009 (ip), vehicle: other
[8] = endpoint: mean survival time, dose: 100.0 mg/kg/injection, schedule: Q01DX009 (ip), vehicle: saline with Tween-80
[9] = endpoint: mean survival time, dose: 200.0 mg/kg/injection, schedule: Q01DX009 (ip), vehicle: saline with Tween-80
[10] = endpoint: mean survival time, dose: 400.0 mg/kg/injection, schedule: Q01DX009 (ip), vehicle: saline with Tween-80
[11] = endpoint: mean survival time, dose: 12.5 mg/kg/injection, schedule: Q04DX002 (ip), vehicle: saline with Tween-80
[12] = endpoint: mean survival time, dose: 25.0 mg/kg/injection, schedule: Q04DX002 (ip), vehicle: saline with Tween-80
[13] = endpoint: mean survival time, dose: 50.0 mg/kg/injection, schedule: Q04DX002 (ip), vehicle: saline with Tween-80

Measured: T/C

COC1=C2C[C@@H](C)C[C@@H](OC)[C@@H](O)[C@H](C)/C=C(\C)[C@@H](OC(N)=O)[C@H](OC)/C=C\C=C(/C)C(=O)NC(=CC1=O)C2=O
inactive: endpoint: mean survival time, dose: 0.12 mg/kg/injection, schedule: Q01DX009 (ip), vehicle: saline with Tween-80 102 % of control | endpoint: mean survival time, dose: 0.25 mg/kg/injection, schedule: Q01DX009 (ip), vehicle: saline with Tween-80 102 % of control | endpoint: mean survival time, dose: 0.5 mg/kg/injection, schedule: Q01DX009 (ip), vehicle: saline with Tween-80 98 % of control | endpoint: mean survival time, dose: 1.0 mg/kg/injection, schedule: Q01DX009 (ip), vehicle: saline with Tween-80 101 % of control | endpoint: mean survival time, dose: 2.0 mg/kg/injection, schedule: Q01DX009 (ip), vehicle: saline with Tween-80 112 % of control | endpoint: mean survival time, dose: 4.0 mg/kg/injection, schedule: Q01DX009 (ip), vehicle: saline with Tween-80 111 % of control | endpoint: mean survival time, dose: 5.0 mg/kg/injection, schedule: Q01DX001 (ip), vehicle: saline 104 % of control | endpoint: mean survival time, dose: 10.0 mg/kg/injection, schedule: Q01DX001 (ip), vehicle: saline 107 % of control

CC1(C)OC(=O)C(c2ccccc2)O1 (configuration not stated)
inactive: [1] 100 % of control | [2] 98 % of control | [3] 104 % of control

C=Cc1ccc(Oc2ccccc2)cc1
inactive: [1] 93 % of control | [2] 97 % of control | [3] 90 % of control

Nc1ncnc2cc3c(cc12)ncn3C1OC(CO)C(O)C1O (configuration not stated)
inactive: endpoint: mean survival time, dose: 12.5 mg/kg/injection, schedule: Q01DX005 (ip), vehicle: water 92 % of control | endpoint: mean survival time, dose: 25.0 mg/kg/injection, schedule: Q01DX005 (ip), vehicle: water 104 % of control | endpoint: mean survival time, dose: 50.0 mg/kg/injection, schedule: Q01DX005 (ip), vehicle: water 104 % of control | endpoint: mean survival time, dose: 100.0 mg/kg/injection, schedule: Q01DX005 (ip), vehicle: water 112 % of control | endpoint: mean survival time, dose: 200.0 mg/kg/injection, schedule: Q01DX005 (ip), vehicle: water 110 % of control

CCOC(=O)C1CCCNC1=O (configuration not stated)
inactive: [4] 101 % of control | [5] 94 % of control | endpoint: mean survival time, dose: 400.0 mg/kg/injection, schedule: Q01DX001 (ip), vehicle: saline 95 % of control

COc1ccc(Cc2cncc3cc(OC)c(OC)cc23)cc1OC
inactive: [4] 101 % of control | [5] 96 % of control

CC[n+]1ccc(Nc2ccc(/C=C/c3ccc4cc(Nc5cc[n+](CC)cc5)ccc4[n+]3CC)cc2)cc1
inactive: endpoint: mean survival time, dose: 2.5 mg/kg/injection, schedule: Q01DX009 (oral), vehicle: saline 98 % of control | endpoint: mean survival time, dose: 5.0 mg/kg/injection, schedule: Q01DX009 (oral), vehicle: saline 102 % of control | endpoint: mean survival time, dose: 10.0 mg/kg/injection, schedule: Q01DX009 (oral), vehicle: saline 88 % of control

COC12[C@@H]3N[C@@H]3CN1C1=C(C(=O)C(N3CCCC(O)C3)=C(C)C1=O)[C@@H]2COC(N)=O (some centres not stated)
inactive: endpoint: median survival time, dose: 3.0 mg/kg/injection, schedule: Q01DX001 (ip), vehicle: saline 106 % of control | endpoint: median survival time, dose: 6.0 mg/kg/injection, schedule: Q01DX001 (ip), vehicle: saline 111 % of control | endpoint: median survival time, dose: 12.0 mg/kg/injection, schedule: Q01DX001 (ip), vehicle: saline 118 % of control and 98 % of control | endpoint: median survival time, dose: 24.0 mg/kg/injection, schedule: Q01DX001 (ip), vehicle: saline 108 % of control | endpoint: median survival time, dose: 48.0 mg/kg/injection, schedule: Q01DX001 (ip), vehicle: saline 112 % of control

COc1c(C)c2c(c3c1CC(=O)O3)C(=O)OC2
inactive: [6] 108 % of control | endpoint: mean survival time, dose: 200.0 mg/kg/injection, schedule: Q04DX002 (ip), vehicle: saline with Tween-80 112 % of control | endpoint: mean survival time, dose: 400.0 mg/kg/injection, schedule: Q04DX002 (ip), vehicle: saline with Tween-80 112 % of control

CCOC(=O)C(=CCBr)C(=O)OCC
inactive: endpoint: mean survival time, dose: 1.56 mg/kg/injection, schedule: Q01DX009 (ip), vehicle: other 100 % of control | endpoint: mean survival time, dose: 3.13 mg/kg/injection, schedule: Q01DX009 (ip), vehicle: other 100 % of control | endpoint: mean survival time, dose: 6.25 mg/kg/injection, schedule: Q01DX009 (ip), vehicle: other 107 % of control | endpoint: mean survival time, dose: 12.5 mg/kg/injection, schedule: Q01DX009 (ip), vehicle: other 100 % of control | [7] 102 % of control

CC1CC(C)(O)CC(C(O)CC2CC(=O)NC(=O)C2)C1=O (configuration not stated)
inactive: endpoint: mean survival time, dose: 0.02 mg/kg/injection, schedule: Q01DX009 (ip), vehicle: saline 96 % of control and 102 % of control | endpoint: mean survival time, dose: 0.04 mg/kg/injection, schedule: Q01DX009 (ip), vehicle: saline 105 % of control and 107 % of control | endpoint: mean survival time, dose: 0.08 mg/kg/injection, schedule: Q01DX009 (ip), vehicle: saline 114 % of control | endpoint: mean survival time, dose: 0.16 mg/kg/injection, schedule: Q01DX009 (ip), vehicle: saline 117 % of control and 122 % of control

Cc1ccc(S(=O)(=O)NC(=O)O/N=C/c2ccccn2)cc1
inactive: [8] 100 % of control | [9] 91 % of control | [10] 100 % of control

O=C1N(c2ccccc2)SN2C3C=CC(C4CC43)N12 (configuration not stated)
inactive: [11] 114 % of control | [12] 105 % of control

N#Cc1n[nH]c(C2OC(CO)C(O)C2O)c1O (configuration not stated)
inactive: endpoint: median survival time, dose: 9.38 mg/kg/injection, schedule: Q01DX005 (ip), vehicle: water 104 % of control | endpoint: median survival time, dose: 18.75 mg/kg/injection, schedule: Q01DX005 (ip), vehicle: water 106 % of control | endpoint: median survival time, dose: 39.5 mg/kg/injection, schedule: Q01DX005 (ip), vehicle: water 109 % of control | endpoint: median survival time, dose: 79.0 mg/kg/injection, schedule: Q01DX005 (ip), vehicle: water 109 % of control | endpoint: median survival time, dose: 158.0 mg/kg/injection, schedule: Q01DX005 (ip), vehicle: water 109 % of control

CCC(=O)c1cc2c(c3c1CCCC3)CCCC2
inactive: [7] 104 % of control | endpoint: mean survival time, dose: 50.0 mg/kg/injection, schedule: Q01DX009 (ip), vehicle: other 98 % of control | endpoint: mean survival time, dose: 100.0 mg/kg/injection, schedule: Q01DX009 (ip), vehicle: other 104 % of control

COc1ccc(CCNC(=O)/C=C\C(=O)O)cc1OC
inactive: [8] 106 % of control | [1] 89 % of control | [9] 103 % of control | [2] 103 % of control | [10] 101 % of control | [3] 106 % of control

O=C1C=C(Nc2ccc([N+](=O)[O-])cc2)c2ccccc2C1=O
inactive: endpoint: mean survival time, dose: 75.0 mg/kg/injection, schedule: Q01DX001 (ip), vehicle: saline 95 % of control | endpoint: mean survival time, dose: 150.0 mg/kg/injection, schedule: Q01DX001 (ip), vehicle: saline 91 % of control

CCn1c(=N)sc2ccc(C(=O)OC)cc21
inactive: [11] 101 % of control | [12] 96 % of control | [13] 90 % of control | [2] 88 % of control

c1ccc2nc(N3CCCCC3)ccc2c1
inactive: [12] 94 % of control | [13] 94 % of control | [6] 94 % of control
